Data reported in ChEMBL document CHEMBL4831516, “Development of Membrane-Active Honokiol/Magnolol Amphiphiles as Potent Antibacterial Agents against Methicillin-Resistant Staphylococcus aureus (MRSA)” (J Med Chem, 2021).
Activity calls are given as the source filed them. No cut-off for these calls is given here.

What was measured:
[1] = Toxicity in BALB/c mouse assessed as abnormalities and pathological changes in liver at 25 mg/kg, sc once a day for 3 days by H and E staining based assay; format: organism-based; conditions: in vivo, 72 h, time 3 day
Staphylococcus aureus [2] = test: Antibacterial activity against methicillin-resistant Staphylococcus aureus clinical isolate M-16 assessed as inhibition of visible growth incubated for 16 to 18 hrs by CLSI method; format: functional; conditions: time 16-18 hrs, read-out: MIC100
Staphylococcus aureus [3] = test: Antibacterial activity against methicillin-resistant Staphylococcus aureus clinical isolate 16 infected in BALB/c mouse assessed as reduction in inflammatory cell inflammation in liver at 25 mg/kg, sc once a day for 3 days by H and E staining based assay; format: functional, organism-based; conditions: time 3.0 day
[4] = Hemolytic activity in sheep RBC assessed as hemolysis incubated for 1 hr; format: ADME, cell-based, Ovis aries, Erythrocyte; conditions: sheep red blood cells (erythrocytes)
Salmonella enterica [5] = test: Antibacterial activity against Salmonella enterica 8389 assessed as inhibition of visible growth incubated for 16 to 18 hrs by CLSI method; format: functional; conditions: time 16-18 hrs, read-out: MIC100
Staphylococcus aureus [6] = test: Antibacterial activity against […] at sublethal concentration treated over 20 serial passages by resistance development assay; format: functional, organism-based
Staphylococcus aureus [7] = test: Antibacterial activity against methicillin-resistant Staphylococcus aureus clinical isolate 16 infected in BALB/c mouse assessed as reduction in bacterial load in liver at 25 mg/kg, sc once a day for 3 days by H and E staining based assay; format: functional, organism-based; conditions: time 3.0 day
Staphylococcus aureus [8] = test: Antibacterial activity against methicillin-resistant Staphylococcus aureus clinical isolate 16 infected in BALB/c mouse assessed as reduction in inflammatory cell inflammation in spleen at 25 mg/kg, sc once a day for 3 days by H and E staining based assay; format: functional, organism-based; conditions: time 3.0 day
Cell membrane [9] = test: Induction of membrane disruption in methicillin-resistant Staphylococcus aureus clinical isolate 16 assessed as increase in green fluorescence at 10 ug/ml by SYTOX green staining based confocal laser scanning microscopy; format: subcellular; conditions: dose 10.0 µg/ml
Enterococcus faecalis = test: Antibacterial activity against Enterococcus faecalis ATCC29212 assessed as inhibition of visible growth incubated for 16 to 18 hrs by CLSI method; format: functional; conditions: time 16-18 hrs, read-out: MIC100
Staphylococcus aureus [10] = test: Antibacterial activity against methicillin-resistant Staphylococcus aureus clinical isolate M-18 assessed as inhibition of visible growth incubated for 16 to 18 hrs by CLSI method; format: functional; conditions: time 16-18 hrs, read-out: MIC100
Staphylococcus aureus [11] = test: Antibacterial activity against methicillin-resistant Staphylococcus aureus clinical isolate M-13 assessed as inhibition of visible growth incubated for 16 to 18 hrs by CLSI method; format: functional; conditions: time 16-18 hrs, read-out: MIC100
Staphylococcus aureus [12] = test: Antibacterial activity against […] assessed as fold increase in MIC at sublethal concentration treated over 20 serial passages by resistance development assay; format: functional
Cell membrane [13] = test: Induction of membrane morphological changes in methicillin-resistant Staphylococcus aureus clinical isolate 16 assessed as intact and smooth surface at 10 ug/ml by scanning electron microscopy; format: subcellular; conditions: dose 10.0 µg/ml
[14] = test system: Stenotrophomonas maltophilia; test: Antibacterial activity against Stenotrophomonas maltophilia assessed as inhibition of visible growth incubated for 16 to 18 hrs by CLSI method; format: functional; conditions: time 16-18 hrs, read-out: MIC100
[15] = Toxicity in BALB/c mouse assessed as abnormalities and pathological changes in kidney at 25 mg/kg, sc once a day for 3 days by H and E staining based assay; format: organism-based; conditions: in vivo, 72 h, time 3 day
Salmonella enterica [16] = test: Antibacterial activity against Salmonella enterica 349812 assessed as inhibition of visible growth incubated for 16 to 18 hrs by CLSI method; format: functional; conditions: time 16-18 hrs, read-out: MIC100
Staphylococcus aureus [17] = test: Antibiofilm activity against Staphylococcus aureus assessed as destruction of biofilm at 64 ug/ml incubated for 16 to 18 hrs by crystal violet based biofilm disruption assay relative to control; format: functional; conditions: dose 64 µg/ml; time 16-18 hrs
Staphylococcus aureus [18] = test: Antibacterial activity against methicillin-resistant Staphylococcus aureus clinical isolate M-20 assessed as inhibition of visible growth incubated for 16 to 18 hrs by CLSI method; format: functional; conditions: time 16-18 hrs, read-out: MIC100
Staphylococcus aureus [19] = test: Bactericidal activity against methicillin-resistant Staphylococcus aureus clinical isolate 16 assessed as reduction in colony formation in late stage at 8 times of MIC measured within 2 hrs by time-kill assay; format: functional, organism-based
Micrococcus luteus = test: Antibacterial activity against Micrococcus luteus assessed as inhibition of visible growth incubated for 16 to 18 hrs by CLSI method; format: functional; conditions: time 16-18 hrs, read-out: MIC100
Cell membrane [20] = test: Induction of membrane morphological changes in methicillin-resistant Staphylococcus aureus clinical isolate 16 assessed as visible cell surface wrinkles and disruption at 10 ug/ml by scanning electron microscopy; format: subcellular; conditions: dose 10.0 µg/ml
Staphylococcus aureus [21] = test: Antibacterial activity against Staphylococcus aureus ATCC29213 assessed as inhibition of visible growth incubated for 16 to 18 hrs by CLSI method; format: functional; conditions: time 16-18 hrs, read-out: MIC100
Staphylococcus aureus [22] = test: Antibacterial activity against methicillin-resistant Staphylococcus aureus clinical isolate M-14 assessed as inhibition of visible growth incubated for 16 to 18 hrs by CLSI method; format: functional; conditions: time 16-18 hrs, read-out: MIC100
Cell membrane [23] = test: Induction of membrane disruption in methicillin-resistant Staphylococcus aureus clinical isolate 16 at 4 to 32 ug/ml measured for 16 mins by DiSC35 dye based fluorescence assay; format: subcellular; conditions: dose 4-32 µg/ml
Staphylococcus aureus [24] = test: Antibacterial activity against methicillin-resistant Staphylococcus aureus clinical isolate M-12 assessed as inhibition of visible growth incubated for 16 to 18 hrs by CLSI method; format: functional; conditions: time 16-18 hrs, read-out: MIC100
Staphylococcus aureus [25] = test: Antibacterial activity against methicillin-resistant Staphylococcus aureus clinical isolate M-15 assessed as inhibition of visible growth incubated for 16 to 18 hrs by CLSI method; format: functional; conditions: time 16-18 hrs, read-out: MIC100
Cell membrane [26] = test: Induction of cell membrane permeability in methicillin-resistant Staphylococcus aureus clinical isolate 16 assessed as fluorescent intensity by SYTOX dye based fluorescence assay; format: subcellular
Escherichia coli = test: Antibacterial activity against Escherichia coli ATCC25922 assessed as inhibition of visible growth incubated for 16 to 18 hrs by CLSI method; format: functional; conditions: time 16-18 hrs, read-out: MIC100
Staphylococcus aureus [27] = test: Antibiofilm activity against Staphylococcus aureus assessed as reduction in colony forming unit at 64 ug/ml incubated for 16 to 18 hrs by biofilm disruption assay; format: functional; conditions: dose 64 µg/ml; time 16-18 hrs
Staphylococcus aureus [28] = test: Bactericidal activity against methicillin-resistant Staphylococcus aureus clinical isolate 16 assessed as reduction in colony formation at 1 times of MIC measured upto 8 hrs by time-kill assay; format: functional, organism-based; conditions: time hrs <=8
Staphylococcus aureus [29] = test: Antibacterial activity against methicillin-resistant Staphylococcus aureus clinical isolate M-17 assessed as inhibition of visible growth incubated for 16 to 18 hrs by CLSI method; format: functional; conditions: time 16-18 hrs, read-out: MIC100
Staphylococcus aureus [30] = test: Antibacterial activity against methicillin-resistant Staphylococcus aureus clinical isolate M-19 assessed as inhibition of visible growth incubated for 16 to 18 hrs by CLSI method; format: functional; conditions: time 16-18 hrs, read-out: MIC100
Staphylococcus aureus [31] = test: Antibiofilm activity against Staphylococcus aureus assessed as decrease in viable bacteria in biofilm at 2 to 64 ug/ml incubated for 16 to 18 hrs by biofilm disruption assay; format: functional, organism-based; conditions: dose 2-64 µg/ml, time 16-18 hrs
Cell membrane [32] = test: Induction of membrane disruption in methicillin-resistant Staphylococcus aureus clinical isolate 16 assessed as increase in blue fluorescence at 10 ug/ml by DAPI staining based confocal laser scanning microscopy; conditions: dose 10.0 µg/ml
L02 = test: Cytotoxicity against human LO2 cells assessed as cell morphology at 128 ug/ml incubated for 24 hrs by live/dead staining based fluorescence microscopy; conditions: l02, 24 h, dose 128 µg/ml
Staphylococcus aureus [33] = test: Antibacterial activity against methicillin-resistant Staphylococcus aureus clinical isolate 16 infected in BALB/c mouse assessed as reduction in inflammatory cell inflammation in kidney at 25 mg/kg, sc once a day for 3 days by H and E staining based assay; format: functional, organism-based; conditions: time 3.0 day

SMILES: C=CCc1ccc(OCCC[N+](C)(C)CC(=O)NCCCC)c(-c2ccc(OCCC[N+](C)(C)CC(=O)NCCCC)c(CC=C)c2)c1.[Br-].[Br-]
- Activity [1]: Non-Toxic
- MIC (Staphylococcus aureus [2]): 1 µg/mL
- Activity (Staphylococcus aureus [3]): Active
- HC50 at 1 h [4]: 789 µg/mL
- MIC (Salmonella enterica [5]): 4 µg/mL
- Activity (Staphylococcus aureus [6]): Active
- Activity (Staphylococcus aureus [7]): Active
- Activity (Staphylococcus aureus [8]): Active
- Activity (Cell membrane [9]): Active
- MIC (Enterococcus faecalis): 2 µg/mL
- MIC (Staphylococcus aureus [10]): 0.5 µg/mL
- MIC (Staphylococcus aureus [11]): 1 µg/mL
- fold change (FC) (Staphylococcus aureus [12]): 128
- Activity (Cell membrane [13]): Active
- MIC [14]: 8 µg/mL
- Activity [15]: Non-Toxic
- MIC (Salmonella enterica [16]): 8 µg/mL
- Activity (Staphylococcus aureus [17]): 20%
- MIC (Staphylococcus aureus [18]): 3 µg/mL
- Activity (Staphylococcus aureus [19]): Active
- MIC (Micrococcus luteus): 2 µg/mL
- Activity (Cell membrane [20]): Active
- MIC (Staphylococcus aureus [21]): 1 µg/mL
- MIC (Staphylococcus aureus [22]): 1 µg/mL
- Activity (Cell membrane [23]): Active
- MIC (Staphylococcus aureus [24]): 0.5 µg/mL
- MIC (Staphylococcus aureus [25]): 0.5 µg/mL
- Activity (Cell membrane [26]): Dose-Dependent Effect
- MIC (Escherichia coli): 4 µg/mL
- Activity (Staphylococcus aureus [27]): 3.8 log10CFU/ml
- Activity (Staphylococcus aureus [28]): Active
- MIC (Staphylococcus aureus [29]): 0.5 µg/mL
- MIC (Staphylococcus aureus [30]): 3 µg/mL
- Activity (Staphylococcus aureus [31]): Active
- Activity (Cell membrane [32]): Dose-Dependent Effect
- Activity (L02): Non-Toxic
- Activity (Staphylococcus aureus [33]): Active
